Measured values published in article PMC11466185, “Mechanisms and efficacy of small molecule latency-promoting agents to inhibit HIV reactivation ex vivo” (JCI Insight, 2024).

Key:
[1] = system: PBMCs; test: Total number of live cells (proliferation) by trypan blue staining at day 6; type: cell-based, human; settings: for Total live cell numbers (proliferation) compared with activated DMSO (in words) / Total number of live cells (Fig 6A): day 6; for Total live cell numbers (proliferation) compared with activated DMSO (in words): Figure 6A; for Fig 6B: total live cells relative to DMSO+CD3/28: DMSO+CD3/28 = 100
Procedure: Some of our candidate LPAs can block the effects of T cell activation, which could affect T cell proliferation. Therefore, we evaluated the extent to which variations in the level of infected cells may contribute to reductions in different HIV RNA transcripts. We measured the total number of viable cells (as a measure of proliferation) and the conserved U3-U5 LTR HIV DNA region (as a measure of total infection frequency) at day 6.
(A) After 6 days, the total number of live cells was measured by trypan blue staining and then normalized to the levels of the activated DMSO (% of activated DMSO). All conditions were tested in the presence of CD3^+/CD28^+ T cell–activating beads, except for the unactivated DMSO condition. Bars indicate medians, and different colors indicate individual study participants. Comparisons were performed using Wilcoxon’s signed-rank test. (B) Total cellular DNA was extracted, and the levels of U3-U5 HIV DNA were measured to quantify infection frequency at 6 days. HIV DNA levels were normalized to copies per 10^6 cells using the input of cellular DNA (assuming 1 μg of total DNA corresponds to 160,000 cells) and then normalized to the activated DMSO control (% of activated DMSO). Bars indicate medians, and different colors indicate individual study participants.

[2] = system: PBMCs; test: Cell viability by trypan blue staining after 24 hours; type: cell-based, human; set-up: key to Viability (dose-response): % of activated DMSO control viability; settings: for Viability (dose-response): 1 participant per drug, in % (unit assumed); for Cell viability (in words): initial screening concentrations, Figure 1A
Procedure: Figure 1 Screening of candidate LPAs by measuring the change in multiply spliced HIV transcripts after activation. Each drug was tested in PBMCs from 2 ART-suppressed study participants (denoted in the legend by varying symbol shapes). PBMCs were aliquoted into wells at 6 × 10^6 cells/well. After activation, the cells were cultured with antiretrovirals in the presence of individual drugs in DMSO or DMSO alone as control. All conditions were tested in the presence of CD3/28 T cell–activating beads, except for the unactivated DMSO condition. (A) After 24 hours, the viability was measured by trypan blue staining and then normalized to the levels of the activated DMSO (% of activated DMSO). Bars indicate medians. (B) Total cellular RNA was extracted, and the levels of multiply spliced HIV transcripts (TatRev) were measured by RT-ddPCR, normalized to 1 μg of total cellular RNA, and expressed as a percentage of the activated DMSO control (% of activated DMSO). RT-dd, reverse transcription digital droplet; vRNA, viral RNA; HAT, histone acetyltransferase.
For quantification of cell-associated HIV transcripts, PBMCs were harvested either after 24 hours or after 6 days. The cell viabilities were measured by trypan blue staining; then the cells were pelleted by centrifuging at 300g for 6 minutes and stored at –80°C. For quantification of virion-associated HIV RNA, cell culture supernatant was collected from 6 × 10^6 PBMCs that were treated and activated for 6 days as described above. Residual cells and cellular debris were subsequently removed from the supernatant by differential centrifugation (300g for 6 minutes, then 20,000g for 10 minutes), and the supernatant was stored at –80°C.

O=c1c(O)c(-c2ccc(O)c(O)c2)oc2cc(O)cc(O)c12 [quercetin]
Total live cell numbers (proliferation) compared with activated DMSO (in words) [1]: did not change proliferation rates | Viability (dose-response) ([2]; dose 5 µM): 87.619 | Viability (dose-response) ([2]; dose 10 µM): 77.686 | Viability (Fig 1A) ([2]; study participant 150a): 100.02 % of activated DMSO | Viability (Fig 1A) ([2]; study participant 152): 90.16 % of activated DMSO

N#CC[C@H](C1CCCC1)n1cc(-c2ncnc3[nH]ccc23)cn1 [ruxolitinib]
Total live cell numbers (proliferation) compared with activated DMSO (in words) [1]: significantly lower | Viability (dose-response) ([2]; dose 0.4 µM): 90.244 | Viability (dose-response) ([2]; dose 1 µM): 87.333 | Viability (dose-response) ([2]; dose 4 µM): 92.053 | Viability (dose-response) ([2]; dose 10 µM): 89.32 | Viability (Fig 1A) ([2]; study participant 150a): 95.89 % of activated DMSO | Viability (Fig 1A) ([2]; study participant 152): 102.01 % of activated DMSO

C=CCNC1=C2C[C@@H](C)C[C@H](OC)[C@H](O)[C@@H](C)/C=C(\C)[C@H](OC(N)=O)[C@@H](OC)/C=C\C=C(/C)C(=O)NC(=CC1=O)C2=O [tanespimycin]
Total live cell numbers (proliferation) compared with activated DMSO (in words) [1]: significantly lower | Viability (Fig 1A) ([2]; study participant 150b): 104.931 % of activated DMSO | Viability (Fig 1A) ([2]; study participant 2147b): 92.78 % of activated DMSO

CC(C)[C@]12O[C@H]1[C@@H]1O[C@]13[C@]1(O[C@H]1C[C@H]1C4=C(CC[C@@]13C)C(=O)OC4)[C@@H]2O [triptolide]
Total live cell numbers (proliferation) compared with activated DMSO (in words) [1]: significantly lower | Cell viability (in words) [2]: impact on cell viability | Viability (Fig 1A) ([2]; study participant 150b): 96.4057 % of activated DMSO | Viability (Fig 1A) ([2]; study participant 2147b): 91.51 % of activated DMSO

mithramycin A
Total live cell numbers (proliferation) compared with activated DMSO (in words) [1]: significantly lower

pladienolide B
Total live cell numbers (proliferation) compared with activated DMSO (in words) [1]: significantly lower | Fig 6B: total live cells relative to DMSO+CD3/28 ([1]; participant 2027): 130.18 | Fig 6B: total live cells relative to DMSO+CD3/28 ([1]; participant 2147a): 87.14 | Fig 6B: total live cells relative to DMSO+CD3/28 ([1]; participant 2147b): 432.65 | Fig 6B: total live cells relative to DMSO+CD3/28 ([1]; participant 2161): 52.54 | Fig 6B: total live cells relative to DMSO+CD3/28 ([1]; participant 2461): 69.04 | Fig 6B: total live cells relative to DMSO+CD3/28 ([1]; participant 2747): 68.1 | Total number of live cells (Fig 6A) ([1]; study participant 150a): 26.64 % of activated DMSO | Total number of live cells (Fig 6A) ([1]; study participant 156): 40.97 % of activated DMSO | Total number of live cells (Fig 6A) ([1]; study participant 163): 70.82 % of activated DMSO | Total number of live cells (Fig 6A) ([1]; study participant 2027): 28.6 % of activated DMSO | Total number of live cells (Fig 6A) ([1]; study participant 2147a): 113.84 % of activated DMSO | Total number of live cells (Fig 6A) ([1]; study participant 2147b): 53.49 % of activated DMSO | Total number of live cells (Fig 6A) ([1]; study participant 2161): 58.44 % of activated DMSO | Total number of live cells (Fig 6A) ([1]; study participant 2461): 29.57 % of activated DMSO | Total number of live cells (Fig 6A) ([1]; study participant 2747): 105.45 % of activated DMSO | Total number of live cells (Fig 6A) ([1]; study participant 2750): 17.9 % of activated DMSO | Viability (dose-response) ([2]; dose 0.1 nM): 74.768 | Viability (dose-response) ([2]; dose 1 nM): 75.444 | Viability (dose-response) ([2]; dose 10 nM): 68.259 | Cell viability (in words) [2]: impact on cell viability | Viability (Fig 1A) ([2]; study participant 150a): 75.5 % of activated DMSO | Viability (Fig 1A) ([2]; study participant 152): 79.98 % of activated DMSO
